From patent publication US20240272142A1, “METHOD FOR DETERMINING WHITENING EFFICACY OF COSMETIC RAW MATERIAL AND USE THEREOF” (SHENZHEN INSTITUTE FOR DRUG CONTROL (SHENZHEN TESTING …, priority 2023, published 2024)
“And” between values parts separate entries of the source, which are not always exact repeats. Equal entries are not always repeated.

System: mouse melanoma cells B16-F10
Experiment: Relative melanin content of B16-F10 cells after 24 h stimulation with α-MSH (Example 1)
Format: cell-based
Conditions: absorbance at 405 nm relative to blank group, three replicate values
Method: The results in the examples of the present disclosure are all expressed in terms of a relative melanin content: the relative melanin content=absorbance of the experimental group/absorbance of the blank group×100%.
• (1) A cell suspension of B16-F10 cells in a logarithmic growth phase was inoculated into 6-well plates in a cell density of 2×10^5 cells/mL, with an amount being 2 mL in each well, and then added into a 5% carbon dioxide incubator and cultured at a temperature of 37° C. for 24 h. • (2) A medium contained in the 6-well plates was removed, the B16-F10 cells were washed with 2 mL of the PBS, 2 mL of substances from each of the following groups each were added into each well of the 6-well plates, and then cultured in the 5% carbon dioxide incubator at a temperature of 37° C. for 24 h.
Blank group: 2 mL of a basal DMEM was added into each well.
Model group: 2 mL of a-MSH solutions with different concentrations (0.5 μM, 1 μM, 2.5 μM, 5 μM, and 10 μM) were separately added into each well. • (3) Determination of a relative melanin content: the basal DMEM in the 6-well plates was removed by using a sterile pipette, the B16-F10 cells were washed with 2 mL of the PBS, and digested with 400 μL of trypsin; then the digesting was terminated with 1 mL of a complete DMEM; the B16-F10 cells were collected into centrifuge tubes, and centrifuged at 2,500 rpm for 10 min; a resulting supernatant after centrifugation was discarded, the resulting B16-F10 cells were centrifuged with 1,000 μL of the PBS for a second time, 500 μL of a 1 mol/L NaOH solution (containing 10% of DMSO) was added into each of the centrifuge tubes, and subjected to water bath at a temperature of 80° C. for 1 h to obtain a product; 200 μL of the product was transferred into a 96-well plate, an absorbance at 405 nm was determined and calculated to obtain the relative melanin content.

In the case of “α-melanocyte-stimulating hormone [α-MSH]”, the Relative melanin content (α-MSH 0.5 μM) is reported as 102.51% and 111.76% and 97.21%, the Relative melanin content (α-MSH 1.0 μM) is reported as 104.65% and 100.54% and 103.16% and the Relative melanin content (α-MSH 2.5 μM) is reported as 98.75% and 98.22% and 102.18%. For the same substance, the Relative melanin content (α-MSH 5.0 μM) was 96.79% and 97.45% and 95.71% and the Relative melanin content (α-MSH 10 μM) was 111.71% and 108.05% and 112.79%.
